Key:
[1] = tested on: CD4 and CD8 T cells; test: CD4 and CD8 T cell responses in spleens of Panc-02 mice by flow cytometry; assay type: in vivo; conditions: spleens of 3 mice pooled
[2] = tested on: CD4 and CD8 T cells; test: CD4 and CD8 T cell responses in spleen of KPC mice by flow cytometry; assay type: in vivo
[3] = tested on: TAM (CD11b+F4/80+); test: Analysis of TAM (CD11b+F4/80+) in metastases of Panc-02 mice by flow cytometry; assay type: in vivo
Method: (§1) FIG. 7A-7B. […] C57B16 mice were challenged with Panc-02 tumor cells and treated with Listeria-TT+GEM as described in FIG. 7A. Two days after the last treatment the percentage of MDSC (CD11b+Gr1+) was determined in blood by flow cytometry. N=5 mice per group. Representative of two experiments. […] C57B16 mice were challenged with Panc-02 tumor cells and treated with Listeria-TT+GEM as described in FIG. 7A. Two days after the last treatment the percentage of TAM (CD11b+F4/80+) was determined in the primary tumors by flow cytometry. N=5 mice per group. Representative of two experiments. The error bars represent SEM.
(§2) Panc-02 mice with advanced pancreatic cancer were treated with one high and multiple low doses of Listeria-TT (LM-TT) and GEM as described in FIG. 7A. MDSC and TAM were analyzed in the metastases by flow cytometry. Metastases of 3 mice were pooled. This experiment was performed once.

[4] = tested on: MDSC (CD11b+Gr1+); test: Analysis of MDSC (CD11b+Gr1+) in blood of Panc-02 mice by flow cytometry; assay type: in vivo
Method: as §1, §2

[5] = tested on: CD8 T cells; test: CD8 T cell responses to immunodominant TT epitope after immunization; assay type: in vivo, BALB/cByJ mice; conditions: three immunizations with TT856-1313 protein and CpG, blood, restimulated with […]
[6] = TAM in metastases, 3 mice pooled

## Nc1ccn([C@@H]2O[C@H](CO)[C@@H](O)C2(F)F)c(=O)n1 [GEM, gemcitabine]
[1]
  CD3CD4CD69: 14.2 Percentage
  CD3CD4Granzyme B: 4.8 Percentage
  CD3CD4IFNγ: 2.7 Percentage
  CD3CD4Perforin: 14.9 Percentage
  CD3CD8CD69: 15.5 Percentage
  CD3CD8Granzyme B: 1.1 Percentage
  CD3CD8IFNγ: 0.4 Percentage
  CD3CD8Perforin: 4.8 Percentage
[2]
  CD3CD4CD69: 10.01 Percentage
  CD3CD4Granzyme B: 3.5 Percentage
  CD3CD4IFNγ: 0.0 Percentage
  CD3CD4Perforin: 7.90 Percentage
  CD3CD8CD69: 17.5 Percentage
  CD3CD8Granzyme B: 9.71 Percentage
  CD3CD8IFNγ: 1.7 Percentage
  CD3CD8Perforin: 15.60 Percentage
[3]; [6]
  CD80, Percentage of TAM (CD11b+F4/80+) in Metastases: 4.28 Percentage
  IL-6, Percentage of TAM (CD11b+F4/80+) in Metastases: 1.25 Percentage
  IL-10, Percentage of TAM (CD11b+F4/80+) in Metastases: 1.47 Percentage
  MARCO, Percentage of TAM (CD11b+F4/80+) in Metastases: 1.94 Percentage
  TNFα, Percentage of TAM (CD11b+F4/80+) in Metastases: 8.85 Percentage
[3]; two days after last treatment
  TAM population in metastases: reduces the TAM population
[4]; MDSC in blood
  CD80, Percentage of MDSC (CD11b+Gr1+) in Blood: 1.78 Percentage
  IL-6, Percentage of MDSC (CD11b+Gr1+) in Blood: 3.59 Percentage
  IL-10, Percentage of MDSC (CD11b+Gr1+) in Blood: 2.76 Percentage
  MARCO, Percentage of MDSC (CD11b+Gr1+) in Blood: 3.84 Percentage
  TNFα, Percentage of MDSC (CD11b+Gr1+) in Blood: 8.49 Percentage
[4]; two days after last treatment
  MDSC population in blood: reduces the MDSC population

B1: TT856-1313 protein: purified non-toxic C-terminal fragment of tetanus toxoid, amino acid positions 856-1313 (protein, UniProt P04958 856-1313, looked up, fragment)
chain: STPIPFSYSKNLDCWVDNEEDIDVILKKSTILNLDINNDIISDISGFNSSVITYPDAQLVPGINGKAIHLVNNESSEVIVHKAMDIEYNDMFNNFTVSFWLRVPKVSASHLEQYGTNEYSIISSMKKHSLSIGSGWSVSLKGNNLIWTLKDSAGEVRQITFRDLPDKFNAYLANKWVFITITNDRLSSANLYINGVLMGSAEITGLGAIREDNNITLKLDRCNNNNQYVSIDKFRIFCKALNPKEIEKLYTSYLSITFLRDFWGNPLRYDTEYYLIPVASSSKDVQLKNITDYMYLTNAPSYTNGKLNIYYRRLYNGLKFIIKRYTPNNEIDSFVKSGDFIKLYVSYNNNEHIVGYPKDGNAFNNLDRILRVGYNAPGIPLYKKMEAVKLRDLKTYSVQLKLYDDKNASLGLVGTHNGQIGNDPNRDILIASNWYFNHLKDKILGCDWYFVPTDEGWT
[5]
  CD8 T cell responses to immunodominant epitope: CD8 T cells were activated

— patent US11213577B2, “Treatment of cancer using recall antigens delivered by attenuated bacteria” (ALBERT EINSTEIN COLLEGE OF MEDICINE, INC., priority 2015, dated 2022)
